Assay results from patent publication US11084829B2, “Ubiquitin-specific-processing protease 7 (USP7) modulators and uses thereof” (RAPT THERAPEUTICS, INC., priority 2018, dated 2021).

Biological target: USP7 (Homo sapiens, UniProt Q93009)
Experiment: USP7 inhibitory potency (IC50)
Assay type: biochemical
Method: Activity for compounds described herein is provided in Table 2, wherein potency levels are provided as follows: (Potency: USP7 IC50: A<0.01 μM; B=0.01-0.1 μM; C=>0.1 μM.

Sequence of USP7 (Q93009 whole entry): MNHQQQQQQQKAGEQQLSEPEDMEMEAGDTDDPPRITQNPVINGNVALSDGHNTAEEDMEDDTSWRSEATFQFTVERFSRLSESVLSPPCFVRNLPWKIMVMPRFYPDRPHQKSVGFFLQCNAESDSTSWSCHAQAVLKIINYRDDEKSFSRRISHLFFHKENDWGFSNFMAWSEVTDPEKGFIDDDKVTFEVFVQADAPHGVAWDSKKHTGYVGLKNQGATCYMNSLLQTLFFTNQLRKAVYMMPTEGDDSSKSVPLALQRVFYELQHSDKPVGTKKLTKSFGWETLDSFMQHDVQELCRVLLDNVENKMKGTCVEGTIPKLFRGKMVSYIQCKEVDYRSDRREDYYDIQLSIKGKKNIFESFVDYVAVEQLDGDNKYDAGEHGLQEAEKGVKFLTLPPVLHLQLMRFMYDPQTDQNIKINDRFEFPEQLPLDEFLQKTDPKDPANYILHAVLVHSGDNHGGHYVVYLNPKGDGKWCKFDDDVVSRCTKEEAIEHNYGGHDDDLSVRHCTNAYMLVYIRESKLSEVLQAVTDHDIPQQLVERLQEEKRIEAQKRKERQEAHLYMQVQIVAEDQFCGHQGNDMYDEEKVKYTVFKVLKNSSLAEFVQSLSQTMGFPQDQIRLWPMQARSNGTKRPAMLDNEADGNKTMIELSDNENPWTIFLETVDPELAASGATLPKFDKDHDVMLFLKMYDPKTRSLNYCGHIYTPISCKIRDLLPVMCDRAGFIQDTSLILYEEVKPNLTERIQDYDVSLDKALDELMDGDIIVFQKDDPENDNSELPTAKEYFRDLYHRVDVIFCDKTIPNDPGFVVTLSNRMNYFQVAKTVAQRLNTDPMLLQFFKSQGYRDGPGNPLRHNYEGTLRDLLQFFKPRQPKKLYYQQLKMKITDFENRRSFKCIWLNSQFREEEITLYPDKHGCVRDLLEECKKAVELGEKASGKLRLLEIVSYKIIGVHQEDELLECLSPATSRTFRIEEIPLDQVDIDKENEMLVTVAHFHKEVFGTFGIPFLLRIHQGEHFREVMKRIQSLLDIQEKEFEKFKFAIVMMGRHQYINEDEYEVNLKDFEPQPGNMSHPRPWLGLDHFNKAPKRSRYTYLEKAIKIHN

SMILES	IC50 [nM]
Cc1cc(Cl)cc(-c2ncnc3cc(CNC4(CCC(=O)O)CC4)sc23)c1CC1CNCC(C)(C)O1 (stereo not shown) [Example 202, 3-(1-(((4-(5-chloro-2-((6,6-dimethylmorpholin-2-yl)methyl)-3-methylphenyl)thieno[3,2-d]pyrimidin-6-yl)methyl)amino)cyclopropyl)propanoic acid]	10 to 100
Cc1cc(Cl)cc(-c2ncnc3cc(CN4C(=O)CC[C@@H]4CF)sc23)c1C[C@@H]1CNCC(C)(C)O1 [Example 219, (R)-1-((4-(5-chloro-2-(((R)-6,6-dimethylmorpholin-2-yl)methyl)-3-methylphenyl)thieno[3,2-d]pyrimidin-6-yl)methyl)-5-(fluoromethyl)pyrrolidin-2-one]	< 10
Cn1ccc(=O)n(Cc2cc3ncnc(-c4cc(Cl)cc(Cl)c4CC4CNCC(C)(C)O4)c3s2)c1=O (stereo not shown) [Example 252, 3-((4-(3,5-dichloro-2-((6,6-dimethylmorpholin-2-yl)methyl)phenyl)thieno[3,2-d]pyrimidin-6-yl)methyl)-1-methylpyrimidine-2,4(1H,3H)-dione]	< 10
Cc1cc(Cl)cc(-c2ncnc3cc(CN4C(=O)CCN(CCF)C4=O)sc23)c1CN1[C@@H](C)CNC[C@@H]1C [Example 258, 3-((4-(5-chloro-2-(((2S,6S)-2,6-dimethylpiperazin-1-yl)methyl)-3-methylphenyl)thieno[3,2-d]pyrimidin-6-yl)methyl)-1-(2-fluoroethyl)dihydropyrimidine-2,4(1H,3H)-dione]	< 10
Cc1cc(Cl)cc(-c2ncnc3cc(CN4C(=O)CCC4=O)sc23)c1CC1CNCCO1 (stereo not shown) [Example 153, 1-((4-(5-chloro-3-methyl-2-(morpholin-2-ylmethyl)phenyl)thieno[3,2-d]pyrimidin-6-yl)methyl)pyrrolidine-2,5-dione]	< 10
Cc1cc(Cl)cc(-c2ncnc3cc(CN4C(=O)CSC4=O)sc23)c1CN1C[C@@H](C)NC[C@@H]1C [Example 79, 3-((4-(5-chloro-2-(((2S,5R)-2,5-dimethylpiperazin-1-yl)methyl)-3-methylphenyl)thieno[3,2-d]pyrimidin-6-yl)methyl)thiazolidine-2,4-dione]	< 10
Cc1cc(Cl)cc(-c2ncnc3cc(CN4C(=O)CN(C)C4=O)sc23)c1CN1[C@@H](C)CNC[C@@H]1C [Example 87, 3-((4-(5-chloro-2-(((2S,6S)-2,6-dimethylpiperazin-1-yl)methyl)-3-methylphenyl)thieno[3,2-d]pyrimidin-6-yl)methyl)-1-methylimidazolidine-2,4-dione]	< 10
Cc1cc(Cl)cc(-c2ccnc3cc(CN4C(=O)C5CC5C4=O)sc23)c1C(=O)N1[C@@H](C)CNC[C@@H]1C (stereo partly drawn) [Example 35, 3-((7-(5-chloro-2-((2S,6S)-2,6-dimethylpiperazine-1-carbonyl)-3-methylphenyl)thieno[3,2-b]pyridin-2-yl)methyl)-3-azabicyclo[3.1.0]hexane-2,4-dione]	10 to 100
Cc1cc(Cl)cc(-c2ccnc3cc(CN4C(=O)C5CC5C4=O)sc23)c1CN1[C@@H](C)CN(C(C)C)C[C@@H]1C (stereo partly drawn) [Example 32, 3-((7-(5-chloro-2-(((2S,6S)-4-isopropyl-2,6-dimethylpiperazin-1-yl)methyl)-3-methylphenyl)thieno[3,2-b]pyridin-2-yl)methyl)-3-azabicyclo[3.1.0]hexane-2,4-dione]	< 10
O=C1CCC(=O)N1Cc1cc2nccc(-c3cc(Cl)cc(Cl)c3CC3CNCCO3)c2s1 (stereo not shown) [Example 127, 1-((7-(3,5-dichloro-2-(morpholin-2-ylmethyl)phenyl)thieno[3,2-b]pyridin-2-yl)methyl)pyrrolidine-2,5-dione]	< 10
Cc1cc(Cl)cc(-c2ncnc3cc(CN4C(=O)C5CC5C4=O)sc23)c1CC1CNCC2(COC2)O1 (stereo not shown) [Example 220, 3-((4-(2-((2,5-dioxa-8-azaspiro[3.5]nonan-6-yl)methyl)-5-chloro-3-methylphenyl)thieno[3,2-d]pyrimidin-6-yl)methyl)-3-azabicyclo[3.1.0]hexane-2,4-dione]	< 10
COC(=O)C1CC1C(=O)NCc1cc2ncnc(-c3cc(Cl)cc(C)c3C[C@H]3OCCN[C@@H]3C)c2s1 (stereo partly drawn) [Example 161, methyl 2-(((4-(5-chloro-3-methyl-2-(((2R,3R)-3-methylmorpholin-2-yl)methyl)phenyl)thieno[3,2-d]pyrimidin-6-yl)methyl)carbamoyl)cyclopropane-1-carboxylate]	10 to 100
Cc1cc(Cl)cc(-c2ncnc3cc(CN4C(=O)C5CC5C4=O)sc23)c1CN1CCNC[C@@H]1C (stereo partly drawn) [Example 51, 3-((4-(5-chloro-3-methyl-2-(((S)-2-methylpiperazin-1-yl)methyl)phenyl)thieno[3,2-d]pyrimidin-6-yl)methyl)-3-azabicyclo[3.1.0]hexane-2,4-dione]	< 10
Cc1cc(Cl)cc(-c2ncnc3cc(CN4C(=O)C5CC5C4=O)sc23)c1CC1CNC(C)(C)CO1 (stereo not shown) [Example 158, 3-((4-(5-chloro-2-((5,5-dimethylmorpholin-2-yl)methyl)-3-methylphenyl)thieno[3,2-d]pyrimidin-6-yl)methyl)-3-azabicyclo[3.1.0]hexane-2,4-dione]	10 to 100
Cc1cc(Cl)cc(-c2ncnc3cc(CN4C(=O)CCN(CCO)C4=O)sc23)c1C[C@@H]1CNCC(C)(C)O1 [Example 271, (R)-3-((4-(5-chloro-2-((6,6-dimethylmorpholin-2-yl)methyl)-3-methylphenyl)thieno[3,2-d]pyrimidin-6-yl)methyl)-1-(2-hydroxyethyl)dihydropyrimidine-2,4(1H,3H)-dione]	< 10
Cc1cc(Cl)cc(-c2ncnc3cc(CN4C(=O)CCN(C)C4=O)sc23)c1C[C@H]1CNCC(C)(C)O1 [Example 214, (S)-3-((4-(5-chloro-2-((6,6-dimethylmorpholin-2-yl)methyl)-3-methylphenyl)thieno[3,2-d]pyrimidin-6-yl)methyl)-1-methyldihydropyrimidine-2,4(1H,3H)-dione]	10 to 100
CC1(C)CNCC(Cc2c(Cl)cc(Cl)cc2-c2ncnc3cc(CN4C(=O)C5CC5C4=O)sc23)O1 (stereo not shown) [Example 227, 3-((4-(3,5-dichloro-2-((6,6-dimethylmorpholin-2-yl)methyl)phenyl)thieno[3,2-d]pyrimidin-6-yl)methyl)-3-azabicyclo[3.1.0]hexane-2,4-dione]	< 10
Cc1cc(Cl)cc(-c2ncnc3ccsc23)c1CC1CNCCO1 (stereo not shown) [Example 173, 2-(4-chloro-2-methyl-6-(thieno[3,2-d]pyrimidin-4-yl)benzyl)morpholine]	> 100
CN1CCC(=O)N(Cc2cc3ncnc(-c4cc(Cl)cc(Cl)c4CC4CNCCO4)c3s2)C1=O (stereo not shown) [Example 205, 3-((4-(3,5-dichloro-2-(morpholin-2-ylmethyl)phenyl)thieno[3,2-d]pyrimidin-6-yl)methyl)-1-methyldihydropyrimidine-2,4(1H,3H)-dione]	< 10
Cc1cc(Cl)cc(-c2ccnc3cc(CN4C(=O)CCC4=O)sc23)c1CN1CCNC[C@@H]1C [Example 8, (S)-1-((7-(5-chloro-3-methyl-2-((2-methylpiperazin-1-yl)methyl)phenyl)thieno[3,2-b]pyridin-2-yl)methyl)pyrrolidine-2,5-dione]	< 10
Cc1cc(Cl)cc(-c2ccnc3cc(CN4C(=O)C5C(C4=O)C5(C)C)sc23)c1CN1C[C@@H](C)NC[C@@H]1C (stereo partly drawn) [Example 39, 3-((7-(5-chloro-2-(((2S,5R)-2,5-dimethylpiperazin-1-yl)methyl)-3-methylphenyl)thieno[3,2-b]pyridin-2-yl)methyl)-6,6-dimethyl-3-azabicyclo[3.1.0]hexane-2,4-dione]	< 10
C[C@H]1CNC[C@H](C)N1Cc1c(Cl)cc(Cl)cc1-c1ccnc2cc(CN3C(=O)C4CC4C3=O)sc12 (stereo partly drawn) [Example 47, 3-((7-(3,5-dichloro-2-(((2S,6S)-2,6-dimethylpiperazin-1-yl)methyl)phenyl)thieno[3,2-b]pyridin-2-yl)methyl)-3-azabicyclo[3.1.0]hexane-2,4-dione]	< 10
Cc1cc(Cl)cc(-c2ccnc3cc(CN4C(=O)C5CC5C4=O)sc23)c1CN1C[C@@H](C)NC[C@@H]1C (stereo partly drawn) [Example 36, 3-((7-(5-chloro-2-(((2S,5R)-2,5-dimethylpiperazin-1-yl)methyl)-3-methylphenyl)thieno[3,2-b]pyridin-2-yl)methyl)-3-azabicyclo[3.1.0]hexane-2,4-dione]	10 to 100
Cc1cc(Cl)cc(-c2ncnc3cc(CN4C(=O)CCC4C(F)(F)F)sc23)c1CC1CNCC(C)(C)O1 (stereo not shown) [Example 194, 1-((4-(5-chloro-2-((6,6-dimethylmorpholin-2-yl)methyl)-3-methylphenyl)thieno[3,2-d]pyrimidin-6-yl)methyl)-5-(trifluoromethyl)pyrrolidin-2-one]	< 10
C[C@H]1CNCCN1Cc1ccc(F)cc1-c1ncnc2cc(CN3C(=O)C4CC4C3=O)sc12 (stereo partly drawn) [Example 63, 3-((4-(5-fluoro-2-(((S)-2-methylpiperazin-1-yl)methyl)phenyl)thieno[3,2-d]pyrimidin-6-yl)methyl)-3-azabicyclo[3.1.0]hexane-2,4-dione]	> 100
Cc1cc(Cl)cc(-c2ccnc3cc(CN4C(=O)CCC4=O)sc23)c1CN1[C@H](C)CNC[C@@H]1C [Example 22, 1-((7-(5-chloro-2-(((2R,6S)-2,6-dimethylpiperazin-1-yl)methyl)-3-methylphenyl)thieno[3,2-b]pyridin-2-yl)methyl)pyrrolidine-2,5-dione]	< 10
Cc1cc(Cl)cc(-c2ncnc3cc(CN4C(=O)CCC4=O)sc23)c1C[C@H]1CNCC(C)(C)O1 [Example 212, (S)-1-((4-(5-chloro-2-((6,6-dimethylmorpholin-2-yl)methyl)-3-methylphenyl)thieno[3,2-d]pyrimidin-6-yl)methyl)pyrrolidine-2,5-dione]	10 to 100
Cc1cc(Cl)cc(-c2ncnc3cc(CN4C(=O)COC4=O)sc23)c1C[C@@H]1CNCC(C)(C)O1 [Example 234, (R)-3-((4-(5-chloro-2-((6,6-dimethylmorpholin-2-yl)methyl)-3-methylphenyl)thieno[3,2-d]pyrimidin-6-yl)methyl)oxazolidine-2,4-dione]	< 10
